Assay results as given in ChEMBL document CHEMBL1135179, “Synthesis of C-8 alkylamino substituted pyrrolo[2,1-c][1,4]benzodiazepines as potential anti-cancer agents” (2002).

Legend:
Assay type in all cases: functional
NSCLC = assay: Compound was tested for 50% lethality in Non-small-cell lung cancer cell lines; conditions: Homo sapiens, read-out: Log LC50 (the source's name) (converted)
[1] = tested on: Panel prostate (Carcinoma cell lines); assay: Compound was tested for 50% lethality in Prostate cancer cell lines; conditions: Homo sapiens, read-out: Log LC50 (converted)
[2] = tested on: Panel renal (Carcinoma cell lines); assay: Compound was tested for 50% lethality in Renal cancer cell lines; conditions: Homo sapiens, read-out: Log LC50 (the source's name) (converted)
[3] = tested on: Panel breast (Carcinoma cell lines); assay: Compound was tested for 50% lethality in Breast cancer cell lines; conditions: Homo sapiens, read-out: Log LC50 (the source's name) (converted)
[4] = tested on: Panel CNS (Carcinoma cell lines); assay: Compound was tested for 50% lethality in CNS cancer cell lines; conditions: Homo sapiens, read-out: Log LC50 (the source's name) (converted)
leukaemia cell line = assay: Compound was tested for 50% lethality in leukemia cancer cell lines; conditions: Homo sapiens, read-out: Log LC50 (the source's name) (converted)
[5] = tested on: Panel colon (Carcinoma cell lines); assay: Compound was tested for 50% lethality in Colon cancer cell lines; conditions: Homo sapiens, read-out: Log LC50 (the source's name) (converted)
[6] = tested on: Panel melanoma (Carcinoma cell lines); assay: Compound was tested for 50% lethality in Melanoma cancer cell lines; conditions: Homo sapiens, read-out: Log LC50 (the source's name) (converted)
[7] = tested on: Panel ovarian (Carcinoma cell lines); assay: Compound was tested for 50% lethality in Ovarian cancer cell lines; conditions: Homo sapiens, read-out: Log LC50 (the source's name) (converted)

Structure (SMILES)	CC50 (NSCLC)	CC50 [1]	CC50 [2]	CC50 [3]	CC50 [4]	CC50 (leukaemia cell line)	CC50 [5]	CC50 [6]	CC50 [7]
COc1cc2c(cc1OCCCN1CCN(C)CC1)N=C[C@@H]1CCCN1C2=O	67.6 µM	> 100 µM	56.2 µM	64.6 µM	64.6 µM	52.5 µM	55 µM	30.9 µM	61.7 µM
COc1cc2c(cc1OCCCN1CCOCC1)N=C[C@@H]1CCCN1C2=O	95.5 µM	> 100 µM	97.7 µM	97.7 µM	95.5 µM	> 100 µM	66.1 µM	87.1 µM	> 100 µM
CCN(CC)CCCOc1cc2c(cc1OC)C(=O)N1CCC[C@H]1C=N2	> 100 µM	> 100 µM	> 100 µM	> 100 µM	> 100 µM	> 100 µM	87.1 µM	93.3 µM	> 100 µM
